Measured values: patent US5153223A, “Biurets, aminocarbonyl carbamates, and aminocarbonyl thiocarbamates useful as ACAT inhibitors” (priority 1991, dated 1992)

System: not listed separately
Assay: In vivo screen APCC: plasma total cholesterol in rats on high fat, high cholesterol diet with 0.5% cholic acid
Parameters: species or system male Sprague-Dawley rats
Settings: rat APCC, 30 mg/kg, high fat high cholesterol diet overnight
Text: In one in vivo screen designated APCC, male Sprague-Dawley rats (200 to 225 g) were randomly divided into treatment groups and dosed at 4 PM with either vehicle (CMC/Tween) or suspensions of compounds in vehicle. The norma chow diet was then replaced with a high fat, high cholesterol diet with 0.5% cholic acid. The rats consumed this diet ad libitum during the night and were sacrificed at 8 AM to obtain blood samples for cholesterol analysis using standard procedures. Statistical differences between mean cholesterol values for the same vehicle were determined using analysis of variance followed by Fisher's least significant test. Compounds were dosed at 30 mg/kg unless otherwise noted.

Structure (SMILES) | % Change in Plasma TC Values (mg/dL)
CC(C)c1cccc(C(C)C)c1OC(=O)NC(=O)NC(c1ccccc1)c1ccccc1 [Example 25, [[(diphenylmethyl)amino]carbonyl]carbamic acid, 2,6-bis(1-methylethyl)phenyl ester] | No change

Same assay, conditions: rat APCC, 30 mg/kg, high fat high cholesterol diet overnight; read-out: % Change in Plasma TC Values (mg/dL)

Structure (SMILES) | change in vivo at 30 mg/kg [%]
CCCCCCCCCCCCC(C)(C)OC(=O)NC(=O)Nc1c(C(C)C)cccc1C(C)C [Example 17, [[[2,6-bis(1-methylethyl)phenyl]amino]carbonyl]carbamic acid, 1,1-dimethyltridecyl ester] | -14
CCCCCCCCCCCCC(C)OC(=O)NC(=O)Nc1c(C(C)C)cccc1C(C)C (racemic) [Example 24, (±)[[[2,6-bis(1-methylethyl)phenyl]amino]carbonyl]carbamic acid, 1-methyltridecyl ester] | -33
CCCCCCCCCCCCOC(=O)NC(=O)Nc1c(C(C)C)cccc1C(C)C [Example 18, [[[2,6-bis(1-methylethyl)phenyl]amino]carbonyl]carbamic acid, dodecyl ester] | -38
CCCCCCCC(C)OC(=O)NC(=O)Nc1c(C(C)C)cccc1C(C)C (racemic) [Example 20, (±)[[[2,6-bis(1-methylethyl)phenyl]amino]carbonyl]carbamic acid, 1-methyloctyl ester] | -24
CCCCCCCCCCCCCCC(C)OC(=O)NC(=O)Nc1c(C(C)C)cccc1C(C)C (racemic) [Example 23, (±)[[[2,6-bis(1-methylethyl)phenyl]amino]carbonyl]carbamic acid, 1-methylpentadecyl ester] | -26
CCCCCCCCC(C)OC(=O)NC(=O)Nc1c(C(C)C)cccc1C(C)C (racemic) [Example 22, (±)[[[2,6-bis(1-methylethyl)phenyl]amino]carbonyl]carbamic acid, 1-methylnonyl ester] | -22
CC(C)c1cccc(C(C)C)c1NC(=O)N(C)C(=O)N(c1ccccc1)c1ccccc1 [Example 1, N'-[2,6-bis(1-methylethyl)phenyl]-2-methyl-N,N-diphenyliminodicarbonic diamide] | -9
CCCCCCCCCCC(C)OC(=O)NC(=O)Nc1c(C(C)C)cccc1C(C)C (racemic) [Example 19, (±)[[[2,6-bis(1-methylethyl)phenyl]amino]carbonyl]carbamic acid, 1-methylundecyl ester] | -26
CCCCCCCCCCCCCCN(C)C(=O)NC(=O)Nc1c(C(C)C)cccc1C(C)C [Example 14, N'-[2,6-bis(1-methylethyl)phenyl]-N-methyl-N-tetradecylimidodicarbonic diamide] | -8
CCCCCC(C)OC(=O)NC(=O)Nc1c(C(C)C)cccc1C(C)C (racemic) [Example 21, (±)[[[2,6-bis(1-methylethyl)phenyl]amino]carbonyl]carbamic acid, 1-methylhexyl ester] | -22
CC(C)c1cccc(C(C)C)c1NC(=O)NC(=O)Oc1c(C(C)C)cccc1C(C)C [Example 15, [[[2,6-bis(1-methylethyl)phenyl]amino]carbonyl] carbamic acid,2,6-bis(1-methylethyl)phenyl ester] | -9

Same assay, conditions: rat APCC, *Dosed at 50 mg/kg, high fat high cholesterol diet overnight; read-out: % Change in Plasma TC Values (mg/dL)

Structure (SMILES) | change in vivo at 50 mg/kg [%]
CC(C)c1cccc(C(C)C)c1NC(=O)NC(=O)N(c1ccccc1)c1ccccc1 [Example 5, N'-[2,6-bis(1-methylethyl)phenyl]-N,N-diphenylimidodicarbonic diamide] | -40
CCCCCCCCN(CCCCCCCC)C(=O)NC(=O)Nc1c(C(C)C)cccc1C(C)C [Example 6, N-[2,6-bis(1-methylethyl)phenyl]-N,N-dioctylimidodicarbonic diamide] | -5
CC(C)c1cccc(C(C)C)c1NC(=O)NC(=O)N1c2ccccc2Sc2ccccc21 [Example 12, N-[[[2,6-bis(1-methylethyl)phenyl]amino]carbonyl]-10H-phenothiazine-10-carboxamide] | -19
CC(C)c1cccc(C(C)C)c1NC(=O)NC(=O)N(Cc1ccccc1)Cc1ccccc1 [Example 4, N'-[2,6-bis(1-methylethyl)phenyl]-N,N-bis(phenylmethyl)imidodicarbonic diamide] | -13
CC(C)c1cccc(C(C)C)c1NC(=O)NC(=O)N(Cc1ccccc1)C(C)C [Example 11, N'-[2,6-bis(1-methylethyl)phenyl]-N-(1-methylethyl)-N-(phenylmethyl)imidodicarbonic diamide] | -27
CC(C)c1cccc(C(C)C)c1NC(=O)NC(=O)N1c2ccccc2CCc2ccccc21 [Example 8, N-[[[2,6-bis(1-methylethyl)phenyl]amino]carbonyl]-10,11-dihydro-5H-dibenz[b,f]azepin-5-carboxamide] | -18
CCCCN(CCCC)C(=O)NC(=O)Nc1c(C(C)C)cccc1C(C)C [Example 7, N'-[2,6-bis(1-methylethyl)phenyl]-N,N-dibutylimidodicarbonic diamide] | -23

Target: T1, acyl-CoA: cholesterol acyltransferase (ACAT) (Oryctolagus cuniculus, UniProt G1SFD9)
T1 construct: tissue preparation containing rabbit intestinal microsomes; from tissue; host or cells: rabbit intestinal microsomes
T1 sequence (G1SFD9 1-524): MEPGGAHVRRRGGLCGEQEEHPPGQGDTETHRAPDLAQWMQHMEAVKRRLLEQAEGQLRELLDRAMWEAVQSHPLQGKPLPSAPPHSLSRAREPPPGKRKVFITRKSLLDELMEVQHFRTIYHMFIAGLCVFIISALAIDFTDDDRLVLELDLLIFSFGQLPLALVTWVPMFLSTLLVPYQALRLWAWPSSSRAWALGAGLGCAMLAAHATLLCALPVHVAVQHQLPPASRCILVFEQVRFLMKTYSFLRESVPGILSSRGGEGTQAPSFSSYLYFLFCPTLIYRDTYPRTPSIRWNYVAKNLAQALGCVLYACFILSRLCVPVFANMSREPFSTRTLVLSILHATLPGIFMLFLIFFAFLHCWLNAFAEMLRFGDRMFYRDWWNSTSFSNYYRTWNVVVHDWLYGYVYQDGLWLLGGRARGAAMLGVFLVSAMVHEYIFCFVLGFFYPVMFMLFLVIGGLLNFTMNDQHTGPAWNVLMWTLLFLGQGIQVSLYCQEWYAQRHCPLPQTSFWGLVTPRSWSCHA
Assay: In vitro ACAT inhibition (IAI): radiolabeled cholesterol oleate formed from radiolabeled oleic acid in rabbit intestinal microsomes
Assay type: biochemical
Settings: not given
Description: The ability of representative compounds of the present invention to inhibit ACAT was measured using an in vitro test more fully described in F. J. Field and R. G. Salone, Biochemica et Biophysica 712:557-570 (1982). The test assesses the ability of a test compound to inhibit the acylation of cholesterol by oleic acid by measuring the amount of radiolabeled cholesterol oleate formed from radiolabeled oleic acid in a tissue preparation containing rabbit intestinal microsomes.
The data appear in Table 1 where they are expressed as IC50 values; i.e., the concentration of test compound required to inhibit the activity of the enzyme by 50%.

Structure (SMILES) | IC50 [nM]
CC(C)c1cccc(C(C)C)c1OC(=O)NC(=O)NC(c1ccccc1)c1ccccc1 [Example 25, [[(diphenylmethyl)amino]carbonyl]carbamic acid, 2,6-bis(1-methylethyl)phenyl ester] | > 1000

Same assay, conditions: rabbit intestinal microsomes, ACAT; read-out: IAI IC50

IC50 [nM] | Structure (SMILES)
> 1000 | CC(C)c1cccc(C(C)C)c1NC(=O)NC(=O)NC(c1ccccc1)c1ccccc1 [Example 2, N-[2,6-bis(1-methylethyl)phenyl)-N'-(diphenylmethyl) iminodicarbonic amide]
890 | CC(C)c1cccc(C(C)C)c1NC(=O)NC(=O)N1c2ccccc2CCc2ccccc21 [Example 8, N-[[[2,6-bis(1-methylethyl)phenyl]amino]carbonyl]-10,11-dihydro-5H-dibenz[b,f]azepin-5-carboxamide]
> 5000 | CCN(CC)C(=O)NC(=O)Nc1c(C(C)C)cccc1C(C)C [Example 10, N'-[2,6-bis(1-methylethyl)phenyl]-N,N-diethylimidodicarbonic diamide]
600 | CC(C)c1cccc(C(C)C)c1NC(=O)N(C)C(=O)N(c1ccccc1)c1ccccc1 [Example 1, N'-[2,6-bis(1-methylethyl)phenyl]-2-methyl-N,N-diphenyliminodicarbonic diamide]
3500 | CC(C)c1cccc(C(C)C)c1NC(=O)NC(=O)N1CCC(c2ccccc2)CC1 [Example 13, N-[[[2,6-bis(1-methylethyl)phenyl]amino]carbonyl]-1-[(4-phenyl)piperidine]carboxamide]
> 5000 | CC(C)c1cccc(C(C)C)c1NC(=O)NC(=O)Nc1c(C(C)C)cccc1C(C)C [Example 3, N,N'-bis[2,6-bis(1-methylethyl)phenyl]imidodicarbonic diamide]
> 5000 | CC(C)c1cccc(C(C)C)c1NC(=O)NC(=O)N1CCCC1 [Example 9, N-[[[2,6-bis(1-methylethyl)phenyl]amino]carbonyl]-1-pyrrolidinecarboxamide]
